Measurements as given in ChEMBL document CHEMBL5678800 (Mol Cancer Ther, 2009).
pIC50: −log10 of the molar value.

System: Rh41
Experiment: Antiproliferative activity against human Rh41 cells assessed as inhibition of cell growth incubated for 72 hrs by 3H-thymidine incorporation assay
Type: functional, cell-based

With `Cc1cc(Nc2cc(N3CCN(C)CC3)nc(Sc3ccc(NC(=O)C4CC4)cc3)n2)n[nH]1` [TOZASERTIB] the pIC50 was 7.03.
